The target in one experiment is HLA-A2.1 (Homo sapiens, UniProt P04439, D140Y/D185E/D98H/E176V/E277Q/G131W/G231S/I119V/I121R/I166T/I218V/L300P/L318F/N151K/N90K/P208A/P217A/Q86G/Q94H/R138H/R169H/T345S). Put plainly: Competition test: inhibition of A2.1 binding of peptide p53 264-272, read as p53-specific CTL lysis of loaded EA2 cells. To be noted: for inhibition of the A2.1 binding of the competing peptide p53 264-272: EA2 cells with 0.01 μg p53 264-272, 4-hour test; for A2.1-binding activity (in words): competitive binding test.

For experiment [1], the system named is A2K^b- and CD8×A2K^b transgenic mice. Put plainly: A2.1-restricted immunogenicity of synthetic peptides after immunization; cytotoxicity test of induced CTL on peptide-loaded T2A2K^b cells. To be noted: peptide immunization in IFA, in vitro stimulation, 4-hour cytotoxicity test. The format is in vivo, mouse.
A further experiment relates to T2 cells. As to the kind of experiment: Cytotoxicity test (51Cr release) of hdm2 81-88-specific CTL on peptide-loaded T2 target cells (peptide titration, peptide specificity). Type of experiment: cell-based, human. To be noted: for absolute maximal lysis: peptide titration.
The test system of experiment [2] is tyrosinase-specific CTL clone IVSB. As to the kind of experiment: CTL recognition of antigen-activated T cells, 6-hour cytotoxicity test. The format is cell-based, human. The following applies: cells loaded with peptide 10 μM. The procedure: FIG. 22: Absence of substantial recognition of antigen-activated T cells. CTL A2 81, CTL CD8×A2 K^b 81, allo-A2.1-reactive CTL and CTL CD8×A2 K^b Flu M1 were tested as effector cells under the E:T ratios indicated in a 6-hour cytotoxicity test against tyrosinase-specific CTL clone IVSB (●) and the same cells loaded with hdm2 81-88 peptide (10 μM) (▴). The target cells were treated with the anti-A2.1 monoclonal antibody PA2.1 as shown (∘).
An A2.1-positive CTL clone “IVSB” having specificity for the tyrosinase peptide 369-377 was produced and made available using technically customary methods.
The lytic reactivity of the effector cells against various target cells was checked in a ^51Cr release test (Theobald et al., 1995). T2 and T2A2 K^b cells were employed as target cells for peptide titration tests. 1-5 Mio target cells were labeled for 60-90 min with 150 μCi of Na (^51Cr) 04 (1 mCi/ml) (NEN Life Science, Belgium). […] The cells were then centrifuged off (1300 rpm, 5° C., 9 min), the supernatant (0.1 ml/well) was taken off and the ^51Cr release was measured using a gamma-“counter” (Canberra Packard, Dreieich). The percentage specific lysis (SL) was calculated according to the following formula: [formula] […]

Another experiment has as its system PBMC. Put plainly: CTL recognition of resting lymphohemopoietic cells, 6-hour cytotoxicity test. The format is cell-based. The following applies: cells loaded with peptide 10 μM.
The test system of a further experiment is resting T cells. The experiment is described as above. The format is cell-based. To be noted: cells loaded with peptide 10 μM.
For the next experiment, the system named is mature DC. As to the kind of experiment: CTL recognition of activated mature dendritic cells, 6-hour cytotoxicity test. Type of experiment: cell-based. The following applies: cells loaded with peptide 10 μM.
The test system of a further experiment is resting B cells. As to the kind of experiment: CTL recognition of resting lymphohemopoietic cells, 6-hour cytotoxicity test. Type of experiment: cell-based. The following applies: cells loaded with peptide 10 μM.
The subject of the next experiment is EL4 cells (H-2^b). Put plainly: Cytotoxicity test of hdm2 81-88-specific CTL on peptide-loaded A2.1-negative EL4 cells (A2.1 restriction). The format is cell-based, mouse.

Like-named read-outs stand apart in the source and are kept apart here.

Consider “tyrosinase 369-377: A2.1-binding peptide tyrosinase 369-377, positive control [reference compound]”, for which the “inhibition of the A2.1 binding of the competing peptide p53 264-272” value (shortened to “inhibition”) in the experiment with HLA-A2.1 (3 μg test peptide) and with HLA-A2.1 (10 μg test peptide) was 100% in each case.
For the substance “hdm2 101-110: intermediately binding synthetic hdm2 peptide, residues 101-110 (TMIYRNLVVV; UniProt Q00987 101-110, looked up, fragment)”, in [1], the “A2.1-restricted and peptide-specific CTL response” value is “demonstrated”. Besides, the “A2.1-binding activity (in words)” value with HLA-A2.1 is given as “intermediately binding”.
Regarding “hdm2 80-88: synthetic hdm2 peptide, residues 80-88; contaminated with hdm2 81-88 (DLLGDLFGV; UniProt Q00987 80-88, looked up, fragment)”, in the experiment with T2 cells (HPLC fraction 23, T2 cells, CTL CD8×A2 K^b 81, E:T 20:1), the “recognition of HPLC-purified peptide by hdm2 81-88-specific CTL” value is “cross-reactivity”. Moreover, the “A2.1-restricted and peptide-specific CTL response” value in experiment [1] is “demonstrated”. Further, the “inhibition” value with HLA-A2.1 (10 μg test peptide) came out at 100%. For the same substance, the “A2.1-binding activity (in words)” value with HLA-A2.1 is given as “strongly binding”.
Regarding “LLGDLFGV [hdm2 81-88, oligopeptide, amino acid positions 81 to 88 of the hdm2 proto-oncoprotein]”, the “CTL lysis after loading with exogenous peptide” value in experiment [2] is “reconstitute”; in the experiment on mature DC it was “reconstituted”. In addition, the “CTL recognition after loading with exogenous peptide” value with PBMC, with resting T cells and in the experiment with resting B cells was “reconstituted” throughout. Moreover, the EC50 in the experiment on T2 cells (CTL line A2 81, E:T 10:1, 4-hour test, read-out: peptide concentration at half-maximal lysis of the target cells) was 0.069 nM; in the experiment with T2 cells (CTL line CD8×A2K^b 81, E:T 10:1, 4-hour test, read-out: peptide concentration at half-maximal lytic activity), 0.036 nM; in the experiment with T2 cells (I° CTL A2 81, 6-hour test, read-out: peptide concentration at half-maximal lysis of the target cells), 0.95 nM; in the experiment with T2 cells (I° CTL CD8×A2 K^b 81, 6-hour test, read-out: peptide concentration at half-maximal lysis of the target cells) it was 0.2 nM. For the same substance, the “lysis of peptide-loaded T2 cells by both hdm2 81-88-specific CTL lines” value with T2 cells (CTL lines A2 81 and CD8×A2 K^b 81, 4-hour test) is on record as “lyzed efficiently”. Moreover, the figures for the absolute maximal lysis in the experiment with T2 cells (I° CTL A2 81) and in the experiment with T2 cells (I° CTL CD8×A2 K^b 81) were 62% and 100%, respectively. Moreover, in [1], the “A2.1-restricted and peptide-specific CTL response” value was “demonstrated”. Further, at HLA-A2.1 (10 μg test peptide), the “inhibition” value came out at 100%. Also, the “A2.1-binding activity (in words)” value at HLA-A2.1 is on record as “strongly binding”. Besides, in the experiment with EL4 cells (H-2^b) (CTL from immunized A2K^b- or CD8×A2K^b-transgenic mice, 2 μg peptide), the “recognition of peptide-loaded EL4 cells by CTL induced by hdm2 81-88” value is recorded as “not recognized”. Besides, in the experiment with EL4 cells (H-2^b) (CTL lines A2 81 and CD8×A2 K^b 81), the “lytic activity of hdm2 81-88-reactive CTL lines on peptide-loaded EL4 cells” value is listed as “no lytic activity at all”.
With “hdm2 48-57: synthetic hdm2 peptide, residues 48-57 (YTMKEVLFYL; UniProt Q00987 48-57, looked up, fragment)”, the “inhibition” value with HLA-A2.1 (10 μg test peptide) was 100%.
For the substance “hdm2 33-41: synthetic hdm2 peptide, residues 33-41 (LLLKLLKSV; UniProt Q00987 33-41, looked up, fragment)”, in experiment [1], the “A2.1-restricted and peptide-specific CTL response” value was “demonstrated”. Besides, the “inhibition” value in the experiment with HLA-A2.1 (10 μg test peptide) came to 100%. Further, the “A2.1-binding activity (in words)” value with HLA-A2.1 is recorded as “strongly binding”.

The record behind these values is patent US20040170653A1, “Tumour peptide antigen produced from human mdm2 proto-oncogene” (priority 2001, published 2004).
